From ChEMBL document CHEMBL1134879, “3D-QSAR studies on 4-hydroxyphenylpyruvate dioxygenase inhibitors by comparative molecular field analysis (CoMFA)” (Bioorg Med Chem Lett, 2002)

Tests used:
[1] = biological target: T1, 4-hydroxyphenylpyruvate dioxygenase (Sus scrofa, UniProt Q02110); assay: Concentration required to achieve 50% inhibition against 4-Hydroxyphenylpyruvate dioxygenase (HPPD) from pig liver; (observed value)
[2] = biological target: T1, 4-hydroxyphenylpyruvate dioxygenase; assay: Concentration required to achieve 50% inhibition against 4-Hydroxyphenylpyruvate dioxygenase (HPPD) from pig liver
[3] = biological target: T1, 4-hydroxyphenylpyruvate dioxygenase; assay: Concentration required to achieve 50% inhibition against 4-hydroxyphenylpyruvate dioxygenase from pig liver; (observed value)
[4] = biological target: T1, 4-hydroxyphenylpyruvate dioxygenase; assay: Concentration required to achieve 50% inhibition against 4-hydroxyphenylpyruvate dioxygenase from pig liver

T1 sequence (Q02110 whole entry): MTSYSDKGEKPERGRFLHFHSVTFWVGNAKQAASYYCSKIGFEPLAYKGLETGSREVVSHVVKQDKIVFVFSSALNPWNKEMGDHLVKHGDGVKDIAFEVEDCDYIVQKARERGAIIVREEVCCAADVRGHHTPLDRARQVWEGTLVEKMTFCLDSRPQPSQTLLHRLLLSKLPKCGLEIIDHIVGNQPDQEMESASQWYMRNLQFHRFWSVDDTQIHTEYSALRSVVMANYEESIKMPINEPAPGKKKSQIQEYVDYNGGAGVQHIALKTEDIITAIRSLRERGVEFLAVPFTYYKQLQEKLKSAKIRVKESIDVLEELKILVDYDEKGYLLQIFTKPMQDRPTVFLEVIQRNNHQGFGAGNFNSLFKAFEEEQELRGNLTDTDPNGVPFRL

IC50 [1]	IC50 [2]	IC50 [3]	IC50 [4]	SMILES
89.1 nM	90 nM	–	–	CCOC(=O)C1CC(=O)C=C(OC(=O)C2CC2)C1 (stereo not drawn)
562 nM	560 nM	–	–	O=C1CCCC(=O)C1=C(O)c1ccccc1Br
30200 nM	30000 nM	–	–	COC1=CC(=O)C(OC(=O)C2CC2)=CC1=O
39.8 nM	40 nM	–	–	CCOC(=O)C1CC(=O)C(C(=O)C2CC2)=C(OC(=O)C2CC2)C1 (stereo not drawn)
110 nM	110 nM	–	–	O=C(Oc1cc(=O)oc2ccccc12)C1CC1
20 nM	20 nM	–	–	O=C1CCCC(OC(=O)C2CC2)=C1Cl
331 nM	330 nM	–	–	CC1(C)CC(=O)C=C(OC(=O)C2CC2)C1
759 nM	760 nM	–	–	O=C1CCCC(=O)C1=C(O)c1ccccc1I
70.8 nM	70 nM	–	–	O=C1C=C(OC(=O)C2CC2)CC1
501 nM	500 nM	–	–	O=C1CCCC(=O)C1=C(O)c1ccccc1Cl
–	–	93300 nM	93300 nM	CC(C)C(=O)C1=C(O)CCCC1=O
–	–	363000 nM	365000 nM	O=C1CCCC(O)=C1C(=O)C1CCCCC1
251 nM	250 nM	–	–	O=C(Oc1cccc(O)c1)C1CC1
–	–	11200 nM	11200 nM	CC(=O)C1=C(O)CCCC1=O
11700 nM	11700 nM	–	–	COc1ccccc1C(O)=C1C(=O)CCCC1=O
30.2 nM	30 nM	–	–	O=C1CCCC(OC(=O)C2CC2)=C1Br
11200 nM	11200 nM	–	–	O=C1CCCC(=O)C1=C(O)c1ccccc1

SMILES	IC50 [1]	IC50 [2]	IC50 [3]	IC50 [4]
CCC(=O)C1=C(O)CCCC1=O	–	–	17800 nM	17800 nM
Cc1ccccc1C(O)=C1C(=O)CCCC1=O	3720 nM	3750 nM	–	–
CS(=O)(=O)c1ccc(C(O)=C2C(=O)CCCC2=O)c(Cl)c1	–	50 nM	–	–
O=C1CCCC(O)=C1C(=O)C1CC1	–	–	6030 nM	6000 nM
O=C1CCCC(=O)C1=C(O)c1ccccc1C(F)(F)F	251 nM	250 nM	–	–
